Measurements taken from patent publication US20240207244A1, “COMPOSITIONS AND METHODS FOR TREATING NEURODEGENERATIVE DISORDERS THROUGH INHIBITION OF CD44 AND FERM PROTEIN INTERACTION” (Arizona Board of Regents on Behalf of the University of …, priority 2021, published 2024).

How the values were obtained:
Moesin [1] = target: T1, Moesin (Homo sapiens, UniProt P26038); experiment: Saturation transfer difference NMR (STD-NMR) binding to Moesin
Source text: Following in silico docking, we (the inventors) triage binding using saturation transfer difference NMR (STD-NMR) as is routinely done in our laboratory to define binding of small molecules (see, Mollasalehi, N. et al. ACS Chem Biol, doi: 10.1021/acschembio.0c00494 (2020): Francois-Moutal, L. et al. ACS Chem Biol 14, 2006-2013, doi: 10.1021/acschembio.9b00481 (2019): François-Moutal, L. et al. ACS Chem Biol 13, 3000-3010, doi:10.1021/acschembio.8b00745 (2018)) (FIG. 2A). After testing the ability of all compounds to bind to Moesin. […] We then measured the affinity of binding using micro-scale thermophoresis (MST), a technique to quantify biomolecular interactions, based on thermophoresis. Concentration-dependent measurements were done using MST to determine dissociation constant for binding of P1 to Moesin and we obtained Apparent Kd=Xxx±xxx μM. Data are presented as mean±SD (n=3) (FIG. 3).

GST = GST (Schistosoma japonicum, UniProt P08515); experiment: STD-NMR binding to control GST; conditions: control protein
HMC3 cells = experiment: Flow cytometry of HLA-DR expression in IFNγ-stimulated HMC3 microglial cells; assay type: cell-based, Human; conditions: HMC3 cells pre-incubated 24 h, then stimulated with IFNγ
Source text: Once we define the binding using purified protein, we validate the binding in cells. We have done this through imaging by using the Lumio™ system for site-specific fluorescent labeling of recombinant proteins in living cells, flow cytometry assays, and cellular thermal shift assay (CETSA). • Lumio™ System Imaging: This recently developed method relies on FLASH (Fluorescein Arsenical Hairpin) technology, which uses biarsenical labeling reagents to bind and detect proteins containing a tetracysteine (TC) motif (Griffin et al., 1998). The biarsenical labeling reagents are nonfluorescent until they bind the TC motif at which time, they become highly fluorescent. Both, a genetically engineered CD44 containing a TC motif, and mCherry-Moesin, were co-transfected into Immortalized Human Microglia (SV40 cell line) (FIG. 5). Ongoing work is being done to optimize this protocol and adapt it for use with small compounds. • Flow Cytometry: Current studies of microglial activation are widely performed to study neuroinflammation and test small compounds and their anti-inflammatory properties. IFNγ was be used to activate macrophage response in HMC3 cells (Human microglial cell line, PMID: 30200996), while flow cytometry was employed in combination with small compounds. […] Reactive microglia expressing the histocompatibility glycoprotein HLA-DR were detected using flow cytometry. […]

Moesin [2] = target: T1, Moesin; experiment: Cellular Thermal Shift Assay (CETSA); assay type: cell-based
Source text: CETSA: To further ascertain the binding between Moesin and small compounds, we are currently developing Cellular Thermal Shift Assay (CETSA), a convenient cell-based test for identifying target engagement between ligands (i.e. a drug candidate) and their protein targets (PMID:XXX). CETSA has been previously used to measure the binding of small molecules to Ezrin (another FERM protein similar to Moesin) in a cellular environment (PMID: 33003361). The assay consists of the measurement of the shift in thermal stability of the target protein (Moesin) in the presence of the small molecules. The apparent melting temperature (Tm), observed in the presence or the absence of a bioactive compound, can be evaluated by measuring the persistence of soluble protein at different temperatures. If the compound binds to the protein of interest, a shift in melting temperature is observed.

Moesin [3] = target: T1, Moesin; experiment: Biophysical binding of P1 analogs (SAR); conditions: first round of analogs
Source text: Indeed, such experiments defined the known structural interactions between CD44, and Msn based on a co-crystal structure of this protein-protein complex. It was proposed that the binding of Msn through CD44 could be mimicked by small molecules. By performing in silico docking on the CD44 binding pocket, using a virtual screen of 50,000 compounds and 200,000 pharmacophores and guided by FERM domain-peptide co-crystal structures, such experiments identified druggable pockets in these FERM proteins. Top scoring compounds were tested for binding to recombinant purified FERM proteins using several biophysical methods.
• Before engaging in custom synthesis, we searched for additional commercially available analogs to expand SAR at the east part of the P1, keeping the piperidinemethyl-heterocycle constant (FIG. 7, red oval). A total of 4.2M compounds were searched for a match to P1 features. “Drug-like” ZINC database 2019 and ChemBridge catalogue provided P1 analogues commercially available. 18 compounds matching the search criteria were selected and tested for biophysical binding. […] Our next SAR analogs will thus include structural modifications that will explore hydrogen bond patterns and the size of the fragments in the 5-hydroxypiperonyl/pyrazolopyridine area. […]

T1 sequence (P26038 whole entry): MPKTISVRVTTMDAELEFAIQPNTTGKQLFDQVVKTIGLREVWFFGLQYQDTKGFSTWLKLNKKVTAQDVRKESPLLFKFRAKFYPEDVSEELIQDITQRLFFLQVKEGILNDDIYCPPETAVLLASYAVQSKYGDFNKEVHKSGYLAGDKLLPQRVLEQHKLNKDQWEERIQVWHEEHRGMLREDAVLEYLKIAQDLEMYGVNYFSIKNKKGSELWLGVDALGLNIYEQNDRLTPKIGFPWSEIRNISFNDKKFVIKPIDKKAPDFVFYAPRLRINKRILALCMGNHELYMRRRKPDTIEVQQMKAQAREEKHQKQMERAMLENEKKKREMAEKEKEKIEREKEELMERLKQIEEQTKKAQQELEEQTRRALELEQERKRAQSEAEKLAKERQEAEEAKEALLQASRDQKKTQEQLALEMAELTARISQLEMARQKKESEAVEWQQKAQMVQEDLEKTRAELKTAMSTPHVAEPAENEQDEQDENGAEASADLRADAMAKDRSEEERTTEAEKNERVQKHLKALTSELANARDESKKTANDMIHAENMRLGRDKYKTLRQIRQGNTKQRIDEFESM
Chain of GST (P08515 2-218 limits assumed): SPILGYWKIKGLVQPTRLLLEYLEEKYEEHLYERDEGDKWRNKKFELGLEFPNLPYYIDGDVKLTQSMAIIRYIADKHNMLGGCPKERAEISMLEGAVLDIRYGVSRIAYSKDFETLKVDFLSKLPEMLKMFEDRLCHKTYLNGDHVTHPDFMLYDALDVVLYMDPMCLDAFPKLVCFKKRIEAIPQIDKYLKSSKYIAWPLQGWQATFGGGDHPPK

Row | SMILES | binding to Moesin (Moesin [1]) | binding to the control GST (GST) | HLA-DR level (HMC3 cells) | shift in melting temperature of Moesin (Moesin [2]) | binding relative to P1 (Moesin [3])
1 | CN1CCC(Cc2noc(CCc3nc4cccnc4n3C)n2)CC1 [P1] | binding specifically | did not bind | reduced | discrete shift | 
2 | CC(Oc1ccc2c(c1)OCO2)c1nc(CC2CCN(C)CC2)no1 (centres unmarked) [Plsar3] |  |  |  |  | improved binding
